In ChEMBL document CHEMBL1147490, “N-4-methansulfonamidobenzyl-N'-2-substituted-4-tert-butyl-benzyl thioureas as potent vanilloid receptor antagonistic ligands” (Bioorg Med Chem Lett, 2004) one finds EC50 and IC50 data, which are given here for 24 compounds.

The structures appear in SMILES notation. pIC50: −log10 of the molar value.

One assay deals with T1, Vanilloid receptor (Rattus norvegicus, UniProt Q9ERZ8+Q9WUD2+O35433). Kind of assay: In vitro induction of 45 [Ca2+] influx in rat DRG neurons (ineffective at 30 uM, partial activity). In kind it is functional.
Take `CC(C)(C)c1ccc(CNC(=S)NCc2ccc(NS(C)(=O)=O)c(F)c2)cc1`: the EC50 entry is recorded as “Partially active”.

In the case of `CC(C)(C)COc1cc(C(C)(C)C)ccc1C/N=C(\S)NCc1ccc(NS(C)(=O)=O)c(F)c1`, the EC50 result is recorded as “Partially active”.

Consider `CC(C)(C)C(=O)OCc1cc(C(C)(C)C)ccc1C/N=C(\S)NCc1ccc(NS(C)(=O)=O)c(F)c1`, for which the EC50 result is “Partially active”.

Consider `CCCCOc1cc(C(C)(C)C)ccc1C/N=C(\S)NCc1ccc(NS(C)(=O)=O)c(F)c1`, for which the EC50 entry is reported as “Partially active”.

A further assay has as its target T1, Vanilloid receptor. The assay can be described thus: In vitro inhibitory concentration was determined against [45Ca2+]- influx in rat DRG neurons. It is filed as functional.
By IC50 is commonly meant the midpoint of a concentration-inhibition curve. The low end stands for higher potency, the high end for lower potency. For `CC(C)(C)c1ccc(C/N=C(\S)NCc2ccc(NS(C)(=O)=O)cc2)c(OCc2ccccc2)c1`, the IC50 is 0.77 µM.

`CCCCCCOc1cc(C(C)(C)C)ccc1C/N=C(\S)NCc1ccc(NS(C)(=O)=O)cc1` displayed an IC50 of 0.15 µM.

Compound `COCCOc1cc(C(C)(C)C)ccc1C/N=C(\S)NCc1ccc(NS(C)(=O)=O)cc1` displayed an IC50 of 0.06 µM.

`NC(=O)N1CCN(c2ccccn2)CC1`: the IC50 was found to be 0.03 µM.

`CCCCCOc1cc(C(C)(C)C)ccc1C/N=C(\S)NCc1ccc(NS(C)(=O)=O)cc1` showed an IC50 of 0.07 µM.

For the compound `CC(C)(C)COc1cc(C(C)(C)C)ccc1C/N=C(\S)NCc1ccc(NS(C)(=O)=O)c(F)c1`, the IC50 came out at 0.066 µM.

In turn, `CC(C)(C)C(=O)Oc1cc(C(C)(C)C)ccc1C/N=C(\S)NCc1ccc(NS(C)(=O)=O)cc1` came in with an IC50 of 0.22 µM.

Regarding `CCCNCC(=O)N(CCC)CC(=O)N(CCC)CC(=O)O`, the 50% inhibitory concentration (IC50) is 2 µM.

The compound `CCCCOc1cc(C(C)(C)C)ccc1C/N=C(\S)NCc1ccc(NS(C)(=O)=O)cc1` returned an IC50 of 0.06 µM.

`CCCOc1cc(C(C)(C)C)ccc1C/N=C(\S)NCc1ccc(NS(C)(=O)=O)cc1`: the IC50 was found to be 0.25 µM.

`COc1cc(CC/N=C(\S)NCCc2ccccc2)ccc1O` showed an IC50 of 0.32 µM.

In general, pIC50 refers to the IC50 on a negative log10 scale, so that one unit is a factor of ten. A low value points to a large IC50. The compound `Cc1cc(CN/C(S)=N/Cc2ccc(NS(C)(=O)=O)cc2)c(COC(=O)C(C)(C)C)cc1C` had a pIC50 of 7.15.

`CC(C)(C)C(=O)OCc1cc(C(C)(C)C)ccc1C/N=C(\S)NCc1ccc(NS(C)(=O)=O)c(F)c1` gave an IC50 of 0.015 µM.

With `CCOc1cc(C(C)(C)C)ccc1C/N=C(\S)NCc1ccc(NS(C)(=O)=O)cc1`, the IC50 worked out at 1.1 µM.

Compound `CC(C)(C)C(=O)OCc1cc(C(C)(C)C)ccc1C/N=C(\S)NCc1ccc(NS(C)(=O)=O)cc1` came in with an IC50 of 0.07 µM.

In turn, `CC(=O)OCc1cc(C(C)(C)C)ccc1C/N=C(\S)NCc1ccc(NS(C)(=O)=O)cc1` had an IC50 of 0.58 µM.

In turn, `CC(C)Oc1cc(C(C)(C)C)ccc1C/N=C(\S)NCc1ccc(NS(C)(=O)=O)cc1` showed an IC50 of 0.35 µM.

In turn, `COc1cc(C(C)(C)C)ccc1C/N=C(\S)NCc1ccc(NS(C)(=O)=O)cc1` showed an IC50 of 2.4 µM.

Turning to `CCCCOc1cc(C(C)(C)C)ccc1C/N=C(\S)NCc1ccc(NS(C)(=O)=O)c(F)c1`, the IC50 amounted to 0.02 µM.

Compound `COCOc1cc(C(C)(C)C)ccc1C/N=C(\S)NCc1ccc(NS(C)(=O)=O)cc1` showed an IC50 of 0.5 µM.

Consider `N/C(S)=N/N1CCCC1`, for which the IC50 worked out at 3 µM.

`CC(C)(C)COc1cc(C(C)(C)C)ccc1C/N=C(\S)NCc1ccc(NS(C)(=O)=O)cc1`: the 50% inhibitory concentration (IC50) amounted to 0.06 µM.

`C=C(C)[C@]12C[C@@H](C)[C@@]34O[C@](Cc5ccccc5)(O[C@@H]1[C@@H]3C=C(COC(=O)Cc1cc(I)c(O)c(OC)c1)C[C@]1(O)C(=O)C(C)=C[C@@H]41)O2` [IODORESINIFERATOXIN]: the IC50 is 4 µM.
